Assay results as given in patent US9156818B2, “Hepatitis C virus inhibitors” (Enanta Pharmaceuticals, Inc., priority 2009, dated 2015).

System: HCV 1b genotype replicon
Test: HCV genotype-1b replicon assay (qRT-PCR or luciferase)
Assay type: cell-based
Conditions: Hepatitis C virus; HCV 1b replicon cell line (SGR 11-7 or Huh-luc/neo-ET); qRT-PCR or luciferase readout; read-out: Genotype-1b replicon EC50 Range
Source text: HCV replicon cell lines (kindly provided by R. Bartenschlager) isolated from colonies as described by Lohman et. al. (Lohman et al. (1999) Science 285: 110-113, expressly incorporated by reference in its entirety) and used for all experiments. The HCV replicon has the nucleic acid sequence set forth in EMBL Accession No.: AJ242651, the coding sequence of which is from nucleotides 1801 to 8406.
The coding sequence of the published HCV replicon was synthesized and subsequently assembled in a modified plasmid pBR322 (Promega, Madison, Wis.) using standard molecular biology techniques. One replicon cell line (“SGR 11-7”) stably expresses HCV replicon RNA which consists of (i) the HCV 5′UTR fused to the first 12 amino acids of the capsid protein, (ii) the neomycin phosphotransferase gene (neo), (iii) the IRES from encephalomyocarditis virus (EMCV), and (iv) HCV NS2 to NS5B genes and the HCV 3′UTR. Another replicon cell line (“Huh-luc/neo-ET”) described by Vrolijk et. al. (Vrolijk et. al. (2003) Journal of Virological Methods 110:201-209, expressly incorporated by reference in its entirety) stably expresses HCV replicon RNA which consists of (i) the HCV 5′UTR fused to the first 12 amino acids of the capsid protein, (ii) the firefly luciferase reporter gene, (iii) the ubiquitin gene, (iv) the neomycin phosphotransferase gene (neo), (v) the IRES from encephalomyocarditis virus (EMCV), and (vi) HCV NS3 to NS5B genes that harbor cell culture adaptive mutations (E1202G, T12801, K1846T) and the HCV 3′UTR.
These cell lines were maintained at 37° C., 5% CO2, 100% relative humidity in DMEM (Cat#11965-084, Invitrogen), with 10% fetal calf serum (“FCS”, Invitrogen), 1% non-essential amino acids (Invitrogen), 1% of Glutamax (Invitrogen), 1% of 100× penicillin/streptomycin (Cat#15140-122, Invitrogen) and Geneticin (Cat#10131-027, Invitrogen) at 0.75 mg/ml or 0.5 mg/ml for 11-7 and Huh-luc/neo-ET cells, respectively.
EC50 values of single agent compounds and combinations were determined by HCV RNA detection using quantitative RT-PCR, according to the manufacturer's instructions, with a TAQMAN® One-Step RT-PCR Master Mix Reagents Kit (Cat# AB 4309169, Applied Biosystems) on an ABI Model 7500 thermocycler. The TaqMan primers used for detecting and quantifying HCV RNA were obtained from Integrated DNA Technologies. HCV RNA was normalized to GAPDH RNA levels in drug-treated cells, which was detected and quantified using the Human GAPDH Endogenous Control Mix (Applied Biosystems, AB 4310884E). Total cellular RNA was purified from 96-well plates using the RNAqueous 96 kit (Ambion, Cat# AM1812). Chemical agent cytotoxicity was evaluated using an MTS assay according to the manufacturer's directions (Promega).
Since clinical drug resistance often develops in viral infections following single agent therapies, there is a need to assess the additive, antagonistic, or synergistic properties of combination therapies. We use the HCV replicon system to assess the potential use of the compound of the present invention or in combination therapies with Interferon alpha, cyclosporine analogs and inhibitors targeting other HCV proteins. The acute effects of a single or combinations of drugs are studied in the “Huh-luc/neo-ET” replicon with each chemical agent titrated in an X or Y direction in a 6 point two-fold dilution curve centered around the EC50 of each drug. Briefly, replicon cells are seeded at 7,000 cells per well in 90 ul DMEM (without phenol red, Invitrogen Cat.#31053-036) per well with 10% FCS, 1% non-essential amino acids, 1% of Glutamax and 1% of 1 OOX penicillin/streptomycin and incubated overnight at 37° C., 5% CO2, 100% relative humidity. […]

Which EC50 does the source give for `COC(=O)N[C@H](C(=O)N1CCC[C@H]1c1ncc(-c2ccc(-c3ccc(-c4cnc([C@@H]5[C@H]6CC[C@H](C6)N5C(=O)[C@@H](NC(=O)OC)C(C)C)[nH]4)cc3)cc2)[nH]1)C(C)C` [Example 83] here?
Its EC50 is under 1 nM.

`COC(=O)N[C@H](C(=O)N1CCC[C@H]1c1ncc(-c2ccc(-c3ccc(-c4cnc([C@H]5[C@@H]6CC[C@@H](C6)N5C(=O)[C@@H](NC(=O)OC)C(C)C)[nH]4)cc3)cc2)[nH]1)C(C)C` [Example 246] was tested. Which EC50 did it give?
The EC50 was under 1 nM.

Which EC50 does the source give for `COC(=O)N[C@H](C(=O)N1CCC[C@H]1c1nc2cc(C#Cc3ccc(-c4cnc([C@@H]5[C@H]6CC[C@H](C6)N5C(=O)[C@@H](NC(=O)OC)C(C)C)[nH]4)cc3)ccc2[nH]1)C(C)C` [Example 319] here?
Its EC50 is under 1 nM.

`COC(=O)N[C@H](C(=O)N1CCC[C@H]1c1nc(-c2ccc(C#Cc3ccc4[nH]c([C@@H]5[C@H]6CC[C@H](C6)N5C(=O)[C@@H](NC(=O)OC)C(C)C)nc4c3)cc2)c[nH]1)C(C)C` [Example 338] was tested. Which EC50 did it give?
The EC50 was under 1 nM.

With `COC(=O)N[C@H](C(=O)N1CCC[C@H]1c1nc(-c2ccc(C#Cc3ccc4[nH]c([C@@H]5C6CCC(CC6)N5C(=O)[C@@H](NC(=O)OC)C(C)C)nc4c3)cc2)c[nH]1)C(C)C` [Example 344] as the molecule, how does the EC50 read?
The EC50 was under 1 nM.

For `COC(=O)N[C@H](C(=O)N1[C@@H]2CC[C@@H](C2)[C@H]1c1ncc(-c2ccc(C#Cc3ccc4[nH]c([C@@H]5[C@H]6CC[C@H](C6)N5C(=O)[C@@H](NC(=O)OC)C(C)C)nc4c3)cc2)[nH]1)C(C)C` [Example 346], which EC50 is on record?
The EC50 was under 1 nM.

How did the EC50 turn out when `COC(=O)N[C@H](C(=O)N1CCC[C@H]1c1nc(-c2ccc(-c3ccc(-c4ccc5[nH]c([C@@H]6[C@H]7CC[C@H](C7)N6C(=O)[C@@H](NC(=O)OC)C(C)C)nc5c4)cc3)cc2)c[nH]1)C(C)C` [Example 348] was run?
Its EC50 is under 1 nM.

With `COC(=O)N[C@H](C(=O)N1CCC[C@H]1c1nc(-c2ccc3cc(-c4ccc5[nH]c([C@@H]6[C@H]7CC[C@H](C7)N6C(=O)[C@@H](NC(=O)OC)C(C)C)nc5c4)ccc3c2)c[nH]1)C(C)C` [Example 350] as the molecule, how does the EC50 read?
Its EC50 is under 1 nM.
